Molecular target: T1, CYP27A1 (Homo sapiens, UniProt Q02318)
T1 construct: Recombinant full-length human CYPs 46A1 and 27A1 and bovine CYP11A1 were expressed and purified; made in house
T1 sequence (Q02318 34-531): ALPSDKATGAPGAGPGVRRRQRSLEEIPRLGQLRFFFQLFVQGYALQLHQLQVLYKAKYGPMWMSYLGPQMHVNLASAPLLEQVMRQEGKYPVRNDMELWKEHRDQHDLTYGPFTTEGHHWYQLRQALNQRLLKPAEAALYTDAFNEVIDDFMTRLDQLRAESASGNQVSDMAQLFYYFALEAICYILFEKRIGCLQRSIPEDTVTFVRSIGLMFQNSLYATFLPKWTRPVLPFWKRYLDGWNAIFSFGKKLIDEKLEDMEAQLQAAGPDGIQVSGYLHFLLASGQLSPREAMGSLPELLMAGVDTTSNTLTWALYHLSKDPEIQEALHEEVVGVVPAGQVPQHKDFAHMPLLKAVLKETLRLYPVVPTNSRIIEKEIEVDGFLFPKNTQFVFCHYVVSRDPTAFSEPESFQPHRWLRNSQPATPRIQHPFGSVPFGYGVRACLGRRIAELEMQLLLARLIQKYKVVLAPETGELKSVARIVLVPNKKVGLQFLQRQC
Assay: Spectral binding assay of antifungal azoles
Conditions: up to 100 μM
Protocol: Titrations of CYP46A1 were carried out in 50 mM potassium phosphate buffer (KPi), pH 7.2, containing 100 mM NaCl and 0.02% Cymal 6. CYPs 11A1 and 27A1 were in 50 mM KPi without any additives. Antifungal drugs were added from 0.2-5 mM stocks in 50% methanol. The apparent Kd and maximal absorbance change were estimated by non-linear least squares fitting using the quadratic form of the single-site binding equation (9).

SMILES: C[C@@H](c1ncncc1F)[C@](O)(Cn1cncn1)c1ccc(F)cc1F [voriconazole]
- spectral response: only a very weak spectral shift was observed
